# Values of other authors, collected in patent US20030064108A1, “TASTE MASKED PHARMACEUTICAL COMPOSITIONS” (priority 1996, published 2003).
# Conditions: 1 g every 6 hours, repeated administration
smiles,measurement,value
CC(=O)Nc1ccc(O)cc1 [paracetamol],mean maximum concentration,about 12 mg/L
same,mean trough plasma concentration (immediately pre-dose),3 mg/L
